Data as given in paper PMC3794980, “Identification of Conserved and HLA Promiscuous DENV3 T-Cell Epitopes” (PLoS Neglected Tropical Diseases, 2013).
Like-named read-outs stand apart in the source and are kept apart here. Where no end group is shown, it is not given here.

Biological target: T1, HLA-A*0201 (HLA-A2:Ig fusion protein) (Homo sapiens, UniProt P04439, D140Y/D185E/D98H/E176V/E277Q/G131W/G231S/I119V/I121R/I166T/I218V/L300P/L318F/N151K/N90K/P208A/P217A/Q86G/Q94H/R138H/R169H/T345S)
T1 construct: two extracellular portions of the major histocompatibility complex (MHC) class I HLA-A2 domains fused to the […] of a mouse IgG1 antibody; purchased BD Biosciences (HLA-A2:Ig); Fitzgerald Industries (β2-microglobulin)
Test: Competitive binding assay using HLA-A2:Ig fusion protein (fluorescence polarization)
Method: The labeled peptide ([…]) was commercially synthesized by GenScript Corporation as a reference peptide for the binding assay. A fluorescein moiety was introduced into position P8 of the designed peptide ([…]). […] The lyophilized labeled peptide was diluted in 100% DMF (Dimethylformamide) to a final concentration of 10 mM. Subsequent dilutions were carried out using 0.5 mg/ml bovine-γ-globulin (BGG) in 1×PBS.
Soluble HLA-A2:Ig dimer complexes were obtained from BD Biosciences. This fusion protein consists of two extracellular portions of the major histocompatibility complex (MHC) class I HLA-A2 domains fused to the […] of a mouse IgG1 antibody. Additional β2-microglobulin (Fitzgerald Industries) was added to the binding assays to retain the fusion protein in a functional state. […] The competitive binding assays were carried out at room temperature for an incubation period of 3 days.
Both labeled and unlabeled peptides were added to the reaction mixture before the HLA-A2:Ig fusion protein, ensuring that both peptides were presented simultaneously to the HLA molecule. To avoid peptide photobleaching, the reaction mixture was incubated within aluminum foil covered microcentrifuge tubes. After the 3 days incubation period, 20 µl of the reaction mixture was loaded into individual wells of a black, non-binding surface (NBS) 384 well plate (Corning). Controls included only buffer (blank), protein and pFITC. Each experiment was performed in quadruplicate and reported as the mean with standard deviation.

[1] = predicted 9-mer tested, fluorescence polarization competition with fluorescein-labeled […], room temperature, 3 days, quadruplicate, read-out: Binding affinity

Compound | IC50 [1] [nM] | further results
CC(C)C[C@H](NC(=O)[C@@H](N)CCCCN)C(=O)N[C@@H](CC(N)=O)C(=O)N[C@@H](CC(=O)O)C(=O)N[C@@H](Cc1c[nH]c2ccccc12)C(=O)N[C@@H](CC(=O)O)C(=O)N[C@@H](Cc1ccccc1)C(=O)N[C@H](C(=O)N[C@H](C(=O)O)C(C)C)C(C)C [NS3_399–407] | 110 | –
RTNDWDFVV [DENV2 (1)] | – | IC50 (read-out: IC50): 167 nM
GLFGKGSLV | 2.9 | –
KLTDWDFVV [DENV4] | – | IC50: 61 nM
